Structures can show the parent of a compound that is named as a salt.
Tests used:
[1] = system: rat vibrissa immortalized dermal papilla cell line; assay: Proliferation of dermal papilla cells (MTT assay); format: cell-based; conditions: incubated for 4 days, absorbance at 540 nm
Procedure: A rat vibrissa immortalized dermal papilla cell line obtained by immortalizing dermal papilla cells isolated from rat whiskers (Filsell W, et al., Transfection of rat dermal papilla cells with a gene encoding a temperature-sensitive polyomavirus large T antigen generates cell lines a differentiated phenotype., J. Cell Sci, 107, pp. 1761-1772, 1994) was incubated at 37° C. in a DMEM (Hyclone Inc, USA) medium containing […] (Gibco Inc, NY, USA) and 10% heat-inactivated fetal bovine serum (FBS, Gibco Inc, NY, USA) using a 5% CO2 pyrostat, and subcultured every 3 days.
The cultured dermal papilla cells (1.0×10^4 cells/ml) were put into each well of a 96-well plate, and incubated for 24 hours. Then, a used culture solution was changed with a serum-free DMEM medium, and cultured again for 24 hours. Thereafter, the cultured solution was treated with 0.01 and 0.1 μM concentrations of the norgalanthamine compound of Experimental Example 1, and a 1 μM concentration of a positive control, minoxidil sulfate (M.S., Sigma, Mo., USA), respectively. The resulting mixture was incubated for 4 days, 50 μl of MTT (Sigma, Mo., USA) was added thereto, and the mixture was reacted for 4 hours. A supernatant was removed, and a pellet was dissolved in 200 μl of DMSO, and then measured for absorbance at 540 nm using a microplate reader (Amersham Pharmacia Biotech, NY, USA). An average absorbance value of each sample group was calculated, and a level of the hair proliferation was examined by comparing the average absorbance value with an absorbance value of the control.

[2] = system: rat vibrissa follicles; assay: Growth of rat vibrissa follicles in organ culture; conditions: time point of 21 days, isolated Wistar rat vibrissa follicles
Procedure: In order to measure an effect of the norgalanthamine compound prepared in Experimental Example 1 on hair growth, the following experiment was performed using a method described in the publication (Philpott M P, et al., Cyclical changes in rat vibrissa follicles maintained in vitro. J Invest Dermatol. 115, pp. 1152-1155, 2000),
A 3-week-old male Wistar rat (Japan SLC, Hamamatsu, Japan) was purchased from Central Lab. Animal Inc. (Korea), anesthetized with ethyl ether, and killed by cervical vertebral dislocation. The left and right mystacial pads of the rat were extracted and put into an E/P buffer ((EBSS, Earle's balanced salts solution, Sigma Mo., USA)+(PBS, phosphate-buffered saline, Sigma Mo., USA)) supplemented with 100 units/ml penicillin and 100 μg/ml streptomycin (Gibco Inc, NY, USA). Vibrissa follicles were carefully isolated under a steroscopic dissecting microscope. Until the hair follicles were completely isolated, the hair follicles were put into a Petri dish containing an E/P buffer, and incubated at 37° C. for 1 hour in a 5% CO2 pyrostat. 500 μl of William E medium (Gibco Inc, NY, USA) containing 2 mM. L-glutamine (Gibco Inc, NY, USA), 10 μg/ml insulin (Sigma Mo., USA), 50 nM hydrocortisone (Sigma Mo., USA) and 100 units/ml penicillin-100 μg/ml streptomycin was put into each well of a 24-well plate, and one hair follicle was added to each well, and incubated at […] in a 5% CO2 pyrostat. 10 to 12 hair follicles were used in each experimental group, and a medium was changed with a fresh medium every 3 days during the incubation. […]
Photographs of shapes of vibrissa follicles were taken using a microscope (Olympus, Japan). Lengths of hair follicles were measured at time points of 0, 7, 14 and 21 days using an image analyzer (DP controller; Olympus, Japan). An average variation in lengths of the hair follicles was calculated, and a growth level was measured by comparing the average variation with an average length of the control.

Row | SMILES | proliferation of dermal papilla cells compared to the control (100%) ([1]; 1 μM, positive control) [%] | growth of hair fiber compared to that of the control (100%) ([2]; 1 uM, positive control) [%] | proliferation of dermal papilla cells compared to the control (100%) ([1]; 0.01 μM) [%] | proliferation of dermal papilla cells compared to the control (100%) ([1]; 0.1 μM) [%] | growth of hair fiber compared to that of the control (100%) ([2]; 0.01 uM) [%] | growth of hair fiber compared to that of the control (100%) ([2]; 0.1 uM) [%]
1 | Nc1cc(N2CCCCC2)nc(N)[n+]1OS(=O)(=O)[O-] [minoxidil sulfate, reference compound] | 114.9±4.5 | 135.03±38.8 |  |  |  | 
2 | COc1ccc2c3c1OC1C[C@@H](O)C=C[C@@]31CCNC2 (stereo partly drawn) [norgalanthamine] |  |  | 114.0±4.3 | 106.2±5.6 | 128.7±13.8 | 139.2±10.3

Reference: patent US20120129838A1, “Composition for Preventing and Treating Alopecia Disorder Containing Morgalanthamine Compounds as an Active Ingredient” (The Industry & Academic Cooperation in Chungnam National …, priority 2009, published 2012)
